Reference: publication PMC8351955, “Targeting Mycobacterium tuberculosis response to environmental cues for the development of effective antitubercular drugs” (PLoS Biology, 2021)
In brackets after ≈: the same amount, converted by molar mass. Several values for one entry are separate records, joined by “and”; a condition that tells them apart may be missing. Equal values may be shown once. Read-outs that look alike come from different tables or passages of the source.

Columns and labels:
[1] = test system: CDC1551(rv2390c′::GFP) reporter Mtb strain; conditions: for Normalized % induction: Fig. 2C, DMSO = 100
[2] = test system: CDC1551(rv1405c′::GFP) reporter Mtb strain; assay: microbe, parasite or virus in culture; assay type: cell-based, Mycobacterium tuberculosis; conditions: for NPA - rv1405c'::GFP, average: Fig 1D
[3] = test system: Mtb growth in J774 macrophage-like cells; assay: J774 infection in 96-well plates, mKO fluorescence 6 days post-infection; assay type: cell-based, Mycobacterium tuberculosis; conditions: for % Growth: Fig. 2D, DMSO = 100
How it was run: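 J774 cells infected with mKO-expressing log-phase Mtb (40 μl at OD600 = 0.2 per well) and treated with compound at 10 μM final (0.1% DMSO). mKO fluorescence (ex 543/em 565 nm) read at infection and 6 days later at 37 °C, 5% CO2; growth expressed relative to DMSO controls as 100%.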

[4] = biological target: T1, CYP1A2 (Homo sapiens, UniProt P05177); assay: Human cytochrome P450 inhibition, 1A2; assay type: in vitro ADME; conditions: read-out: % inhibition of CYP 1A2
T1 sequence (P05177 1-516): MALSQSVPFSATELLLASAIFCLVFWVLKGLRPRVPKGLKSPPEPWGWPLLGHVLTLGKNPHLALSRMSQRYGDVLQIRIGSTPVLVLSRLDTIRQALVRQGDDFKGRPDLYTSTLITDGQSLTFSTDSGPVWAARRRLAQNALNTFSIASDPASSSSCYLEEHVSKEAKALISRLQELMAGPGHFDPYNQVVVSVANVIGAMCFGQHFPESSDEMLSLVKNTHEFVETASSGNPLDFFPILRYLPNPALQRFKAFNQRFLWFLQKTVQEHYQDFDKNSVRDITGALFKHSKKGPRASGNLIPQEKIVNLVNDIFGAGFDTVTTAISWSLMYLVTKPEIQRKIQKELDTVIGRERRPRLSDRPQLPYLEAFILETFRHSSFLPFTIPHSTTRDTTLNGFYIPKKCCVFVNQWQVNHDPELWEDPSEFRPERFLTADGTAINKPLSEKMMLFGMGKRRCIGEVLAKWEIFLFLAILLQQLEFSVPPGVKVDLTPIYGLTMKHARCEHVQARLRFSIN
Procedure: (§1) Assays examining mouse and human liver microsomal stability, kinetic aqueous solubility, mouse and human plasma protein binding and stability, and human cytochrome P450 inhibition characteristics of the compounds were run by BioDuro (San Diego, CA), using standard protocols as previously described [37]. hERG inhibition assays were also performed by BioDuro.

[5] = Kinetic aqueous solubility; assay type: physicochemical; conditions: pH 7.4 phosphate buffered saline; read-out: kinetic aqueous solubility (S)
Procedure: as §1

## CCSc1ncc(CN2CCN(c3nc4ccccc4o3)CC2)cn1 [C6, 2-(4-((2-(ethylthio)pyrimidin-5-yl)methyl)piperazin-1-yl)benzo[d]oxazole]
[1]; average of 3 replicates
  Normalized % induction: 141.019%
[1]; individual replicates
  Normalized % induction: 121.516% and 141.974% and 159.566%
[1]; pH 7
  Ability to increase rv2390c′::GFP reporter signal in high [Cl−]: increased rv2390c′::GFP reporter signal
[2]; 0.0390625 µM
  NPA - rv1405c'::GFP, average: 91.7667%
[2]; 0.078125 µM
  NPA - rv1405c'::GFP, average: 104.333%
[2]; 0.15625 µM
  NPA - rv1405c'::GFP, average: 97.8333%
[2]; 0.3125 µM
  NPA - rv1405c'::GFP, average: 95.1667%
[2]; 0.625 µM
  NPA - rv1405c'::GFP, average: 93.7333%
[2]; 1.25 µM
  NPA - rv1405c'::GFP, average: 103.333%
[2]; 2.5 µM
  NPA - rv1405c'::GFP, average: 124.667%
[2]; 5 µM
  NPA - rv1405c'::GFP, average: 141%
[2]; 10 µM
  NPA - rv1405c'::GFP, average: 137.333%
[2]; 20 µM
  NPA - rv1405c'::GFP, average: 161.5%
[2]; Mycobacterium tuberculosis, read-out: rv1405c'::GFP secondary assay NPA% at 10 µM compound
  activity at 10 µM: 137 ± 15%
[2]; Mycobacterium tuberculosis, read-out: rv1405c'::GFP secondary assay NPA% at 20 µM compound
  activity at 20 µM: 162 ± 3.5%
[3]; 10 μM compound, 6 days post-infection, DMSO = 100%, Fig 1H
  % growth of Mtb in J774 cells, average: 40.8112%
[3]; 10 μM, 6 days post-infection
  Inhibition of Mtb growth in J774 cells: Mtb growth inhibition
[3]; average of 4 replicates
  % Growth: 56.2334%
[3]; individual replicates
  % Growth: 53.4835% and 56.5013% and 56.5506% and 58.3983%
[4]
  inhibition at 10 µM: < 1%
[5]
  solubility kinetic: 76.4 µM (≈ 27.2 µg/mL)
